Data from patent US20220387358A1, “CERAMIDE ANALOG SACLAC MODULATES SPHINGOLIPID LEVELS AND MCL-1 SPLICING TO INDUCE APOPTOSIS IN ACUTE MYELOID LEUKEMIA” (University of Virginia Patent Foundation, priority 2019, published 2022).
Entries after “also recorded” stand apart in the source; their conditions may differ.

Experiments:
[1] = system: primary AML patient samples; assay: Colony forming assay; assay type: cell-based, human; details: six primary patient samples
Procedure: Cryopreserved human AML patient samples were thawed and washed twice with RPMI 1640 supplemented with 2% heat inactivated fetal bovine serum (FBS). After washes, cells were cultured in triplicate in 12-well plates at a density of 0.1 to 2×10^5 cells per well in Human Methylcellulose Complete Media (#HSC003R&D Systems, Minneapolis, Minnesota, United States of America). Plating densities were selected for each case to yield colony outgrowth of 20-100 colonies per well. The desired cell number and dose of SACLAC or DMSO was added to the culture media and dispensed to multi-well plates. Colonies were propagated for 10-14 days and blast colonies (>20 cells) were counted in a blinded manner under the light microscope.

[2] = system: OCI-AML2 cells; assay: Western blot of SF3B1, Mcl-1S and Mcl-1L protein expression; assay type: cell-based, human; details: 24 hours
Procedure: Cells were plated at 2.5×10^5 cells per ml in 6-well plates and treated with drug, vehicle or siRNA at the indicated doses and time points. Cells were harvested, washed with PBS and lysed prior to preparation of protein extracts for western blotting.
More particularly, cells were lysed with RIPA buffer (#R0278, Sigma, St. Louis, Mo., United States of America) containing phosphatase inhibitor cocktails 2 and 3 (Sigma #P5726, #P0044) and protease inhibitor cocktail (#P8340, Sigma, St. Louis, Mo., United States of America). Protein was quantified using a bicinchoninic acid (BCA) protein assay kit (#23225, Pierce, Waltham, Mass., United States of America). Samples were resolved on a Bolt 4-12% SDS-PAGE gel (#NW00082, ThermoFisher Scientific, Waltham, Mass., United States of America) and transferred to PVDF membrane (#170-4274, Bio-Rad Laboratories, Hercules, Calif., United States of America). Antibodies were obtained from Cell Signaling Technology (Danvers, Mass., United States of America) unless indicated otherwise. Primary antibodies used were: Mcl-1 (#5453, RRID #AB 10694494), SF3B1 (#14434, RRID #AB 2798479), β-actin (#3700, RRID #AB_2242334) and AC (BD Biosciences #612302 (San Jose, California, United States of America), RRID #AB_399617). Secondary antibodies used were HRP-linked goat anti-mouse (#7076, RRID #AB_330924) or goat anti-rabbit IgG (#7074, RRID # AB_2099233). Clarity Max Western ECL Substrate (#1705062, Bio-Rad Laboratories, Hercules, Calif., United States of America) was added to visualize relative protein expression by chemiluminescence using the Bio-Rad ChemiDoc MP imaging system (Bio-Rad Laboratories, Hercules, Calif., United States of America). Quantification was done using Bio-Rad ImageLab 6.0.1 software (Bio-Rad Laboratories, Hercules, Calif., United States of America). For quantification, bands were normalized to β-actin as a loading control.

[3] = system: human MV4-11 AML cells; assay: MV4-11 AML xenograft model in NSG mice; assay type: in vivo
Procedure: MV4-11 AML cells expressing luciferase (luc2) and YFP (39) or U937 AML cells expressing luc2 and tdTomato (#72486, Addgene, Watertown, Mass., United States of America) were used to investigate the efficacy of SACLAC in NOD-scid […] (NSG) mice (Jackson Laboratories, Bar Harbor, Me., United States of America). Maximum tolerated dose and pharmacokinetic studies were also performed to determine safety and delivery of compound.
(§1) To assess the efficacy of SACLAC in a transplantable human AML model, two cell line models were used. For the MV4-11 model, 2.5×10^6 luciferase and yellow fluorescent protein (YFP)-expressing MV4-11 cells in HBSS were introduced into 6- to 8-week-old female NSG mice via tail-vein injections. After 10-12 days, engraftment was confirmed using bioluminescence imaging with the IVIS Lumina LT Series III imaging system (PerkinElmer Inc., Waltham, Mass., United States of America). Mice were equally randomized into two groups of three mice and treated with vehicle or SACLAC at 5 mg/kg/day five times per week for 18 total injections. At the end of the treatment, animals were euthanized and peripheral blood was collected for flow cytometry analysis.
Red blood cells (RBC) were lysed with RBC Lysis Buffer (#420301, BioLegend, San Diego, Calif., United States of America) followed by cell surface staining with anti-human CD45 antibodies (#304014, clone HI30, BioLegend, San Diego, Calif., United States of America) and 7AAD (#420404, BioLegend, San Diego, Calif., United States of America) to detect viable human white blood cells (WBC) using an LSR II flow cytometer and BD FACS Diva software. Viable cells were identified by gating on 7AAD-negative cells gated from singlets (SSC-A and FSC-W scales), after excluding the debris (SSC-A and FSC-A scales). Percentage of YFP, tdTomato or hCD45 positive cells was determined in FlowJo software (Becton Dickinson, Franklin Lakes, N.J., United States of America). All animal studies were performed with IACUC approval.

[4] = system: two human AML xenograft mouse models; assay: Leukemic burden across two human AML xenograft mouse models; assay type: in vivo
Description: as §1
For the U937 model, 1×10^4 luciferase and tdTomato-expressing U937 cells in […] were introduced into 6- to 8-week-old female NSG mice via tail-vein injections. After six days, engraftment was confirmed as stated above. Mice were equally randomized into two groups of five mice and treated with vehicle or SACLAC at 5 mg/kg/day five times per week for 15 total injections. Animals were euthanized and bone marrow was collected for flow cytometry analysis.

[5] = system: sphingosine in the liver; assay: Sphingosine in the liver after SACLAC administration; assay type: in vivo, Swiss Webster mice

In the case of CCCCCCCCCCCCCCC[C@@H](O)[C@H](CO)NC(=O)CCl [SACLAC, N-[(2S,3R)-1,3-dihydroxyoctadecan-2-yl]2-chloroacetamide], the “colony formation decreased (average)” value ([1]; 5 μM) is reported as 32%, the “colony formation decreased (average)” value ([1]; 20 μM) is reported as 69% and the SF3B1 protein expression ([2]; SACLAC) is reported as “reduced”. For the same molecule, the “splicing factor SRSF1” value ([2]; SACLAC) was “not affected”, the “increase in the ratio of Mcl-1S to Mcl-1L” value ([2]; increasing doses of SACLAC) was 3 fold and the “upregulation of the Mcl-1S isoform” value ([2]; increasing doses of SACLAC) was 10 fold. The “toxicity in treated animals” value ([3]; 5 mg/kg i.v. in β-HPCD) was “No overt toxicity; also recorded: non-toxic”, the “body weight of treated animals” value ([3]; 5 mg/kg i.v. in β-HPCD, course of the study) was “weight gain; also recorded: did not lose weight” and the “decrease in leukemic burden (circulating leukemic cells in blood)” value ([3]; 5 mg/kg tail-vein, five times per week, 18 injections) was ~75%. The “reduction in leukemic burden” value [4] was 37 to 75% and the “time that liver sphingosine levels were reduced after treatment” value [5] was “at least 6 hours”.
